Toxic doses and inconclusive results are not listed.

In this assay the test system is CD2F1 mice, L1210 leukemia ip, survival T/C. Briefly: NCI In Vivo Anticancer Drug Screen. Data for tumor model L1210 Leukemia (intraperitoneal) in CD2F1 (CDF1) mice. The conditions noted are these: endpoint: mean survival time, higher = longer survival. The essentials: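 Tumor-bearing mice (transplanted tumor) were split into treated and vehicle control groups, and the measured endpoint of each treated group was divided by that of its vehicle controls.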

[1] abbreviates: dose: 100.0 mg/kg/injection, schedule: Q04DX003 (ip), vehicle: saline with Tween-80.
Where [2] appears, read: dose: 200.0 mg/kg/injection, schedule: Q04DX003 (ip), vehicle: saline with Tween-80.
[3] abbreviates: dose: 400.0 mg/kg/injection, schedule: Q04DX003 (ip), vehicle: saline with Tween-80.
The mark [4] stands for this setting: dose: 100.0 mg/kg/injection, schedule: Q01DX009 (ip), vehicle: saline with Tween-80.

Turning to `CCC(C(C)N1CC(=O)NC(=O)C1)N1CC(=O)NC(=O)C1` (configuration not stated), the T/C was 109 % of control (dose: 0.06 mg/kg/injection, schedule: Q01DX009 (ip), vehicle: Klucel (hydroxypropylcellulose) (HPC)); 114 % of control (dose: 0.13 mg/kg/injection, schedule: Q01DX009 (ip), vehicle: Klucel (hydroxypropylcellulose) (HPC)); 119 % of control (dose: 0.5 mg/kg/injection, schedule: Q04DX003 (ip), vehicle: Klucel (hydroxypropylcellulose) (HPC)); 120 % of control (dose: 1.0 mg/kg/injection, schedule: Q01DX009 (ip), vehicle: Klucel (hydroxypropylcellulose) (HPC)); 154 % of control (dose: 1.0 mg/kg/injection, schedule: Q04DX003 (ip), vehicle: Klucel (hydroxypropylcellulose) (HPC)); 89 % of control (dose: 2.0 mg/kg/injection, schedule: Q01DX009 (ip), vehicle: Klucel (hydroxypropylcellulose) (HPC)). Besides, the T/C by setting is: (dose: 2.0 mg/kg/injection, schedule: Q04DX003 (ip), vehicle: Klucel (hydroxypropylcellulose) (HPC)) 178 % of control; (dose: 4.0 mg/kg/injection, schedule: Q04DX003 (ip), vehicle: Klucel (hydroxypropylcellulose) (HPC)) 167 % of control; (dose: 8.0 mg/kg/injection, schedule: Q04DX003 (ip), vehicle: Klucel (hydroxypropylcellulose) (HPC)) 100 % of control.

Regarding `O=c1scc(-c2ccc(Br)cc2)s1`, the T/C reads like this: (dose: 12.5 mg/kg/injection, schedule: Q01DX009 (ip), vehicle: Klucel (hydroxypropylcellulose) (HPC)) 93 % of control; (dose: 25.0 mg/kg/injection, schedule: Q01DX009 (ip), vehicle: Klucel (hydroxypropylcellulose) (HPC)) 100 % of control.

As for `CC(=O)CCCCOC(C)=O`, the T/C is 101 % of control under setting [1], 101 % of control under setting [2] and 98 % of control under setting [3].

As to `NC(=O)c1ccccc1N=NN(CCF)CCF`, the T/C reads like this: (dose: 5.3 mg/kg/injection, schedule: Q04DX003 (ip), vehicle: saline with Tween-80) 103 % of control; (dose: 8.0 mg/kg/injection, schedule: Q04DX003 (ip), vehicle: saline with Tween-80) 100 % of control; (dose: 12.0 mg/kg/injection, schedule: Q04DX003 (ip), vehicle: saline with Tween-80) 105 % of control.

For `Cc1cn(C2CCC(CO)C2)c(=O)[nH]c1=O` (configuration not stated), the T/C (dose: 100.0 mg/kg/injection, schedule: Q01DX001 (ip), vehicle: carboxymethylcellulose (CMC)) was 95 % of control; the T/C (dose: 200.0 mg/kg/injection, schedule: Q01DX001 (ip), vehicle: carboxymethylcellulose (CMC)) was 95 % of control; the T/C (dose: 400.0 mg/kg/injection, schedule: Q01DX001 (ip), vehicle: carboxymethylcellulose (CMC)) is 103 % of control.

For the molecule `CCCCOC(=O)c1c(C(=O)OCCCC)c(-c2ccccc2)c2c(c1-c1ccccc1)-c1cccc3cccc-2c13`, the T/C (dose: 100.0 mg/kg/injection, schedule: Q04DX002 (ip), vehicle: saline with Tween-80) was 97 % of control; the T/C (dose: 200.0 mg/kg/injection, schedule: Q04DX002 (ip), vehicle: saline with Tween-80) is 86 % of control; the T/C (dose: 400.0 mg/kg/injection, schedule: Q04DX002 (ip), vehicle: saline with Tween-80) was 90 % of control.

As to `CCNC(C)(C)C(SS)c1ccc(C(F)(F)F)cc1` (configuration not stated), the T/C by setting is: under setting [1], 88 % of control; under setting [2], 90 % of control; under setting [3], 93 % of control.

With `CC(C(=O)NN)C(O)C(C)(C)O` (configuration not stated), the T/C is 96 % of control under setting [1], 96 % of control under setting [2] and 103 % of control under setting [3].

Consider `COC(=O)N1c2ccccc2C=CC1C#N` (configuration not stated), for which the T/C is, setting by setting: (dose: 6.25 mg/kg/injection, schedule: Q01DX009 (ip), vehicle: saline with Tween-80) 89 % of control; (dose: 12.5 mg/kg/injection, schedule: Q01DX009 (ip), vehicle: saline with Tween-80) 103 % of control; (dose: 12.5 mg/kg/injection, schedule: Q04DX003 (ip), vehicle: saline with Tween-80) 97 % of control; (dose: 25.0 mg/kg/injection, schedule: Q01DX009 (ip), vehicle: saline with Tween-80) 95 % of control; (dose: 25.0 mg/kg/injection, schedule: Q04DX003 (ip), vehicle: saline with Tween-80) 97 % of control; (dose: 50.0 mg/kg/injection, schedule: Q01DX009 (ip), vehicle: saline with Tween-80) 98 % of control. The T/C (dose: 50.0 mg/kg/injection, schedule: Q04DX003 (ip), vehicle: saline with Tween-80) was 97 % of control; the T/C under setting [4] was 101 % of control; the T/C under setting [1] is 98 % of control; the T/C under setting [2] was 95 % of control.

Consider `O=P(NCCCO)(OCc1ccccc1)N(CCCl)CCCl` (configuration not stated), for which the T/C (dose: 15.63 mg/kg/injection, schedule: Q01DX001 (ip), vehicle: DMSO) was 101 % of control; the T/C (dose: 31.25 mg/kg/injection, schedule: Q01DX001 (ip), vehicle: DMSO) was 98 % of control; the T/C (dose: 62.5 mg/kg/injection, schedule: Q01DX001 (ip), vehicle: DMSO) is 101 % of control; the T/C (dose: 125.0 mg/kg/injection, schedule: Q01DX001 (ip), vehicle: DMSO) was 104 % of control; the T/C (dose: 250.0 mg/kg/injection, schedule: Q01DX001 (ip), vehicle: DMSO) was 116 % of control; the T/C (dose: 1000.0 mg/kg/injection, schedule: Q01DX001 (ip), vehicle: DMSO) was 173 % of control. The T/C (dose: 1000.0 mg/kg/injection, schedule: Q01DX001 (ip), vehicle: other) was 178 % of control.

As for `O=C(O)CCC(=O)NO`, the T/C by setting is: (dose: 100.0 mg/kg/injection, schedule: Q04DX003 (ip), vehicle: saline) 109 % of control; (dose: 200.0 mg/kg/injection, schedule: Q04DX003 (ip), vehicle: saline) 109 % of control; (dose: 400.0 mg/kg/injection, schedule: Q04DX003 (ip), vehicle: saline) 109 % of control.

Take `CCCCCCCCCCCCCCCCCCCOc1ccc(OCCCCCCCCCCCC)cc1`: the T/C (dose: 100.0 mg/kg/injection, schedule: Q01DX001 (ip), vehicle: saline with Tween-80) is 93 % of control; the T/C (dose: 200.0 mg/kg/injection, schedule: Q01DX001 (ip), vehicle: saline with Tween-80) was 89 % of control; the T/C (dose: 400.0 mg/kg/injection, schedule: Q01DX001 (ip), vehicle: saline with Tween-80) is 88 % of control.

In the case of `CCOC(=O)C(C(C)=O)C(C(C)=O)C(=O)OCC` (configuration not stated), the T/C was 97 % of control (dose: 75.0 mg/kg/injection, schedule: Q01DX009 (ip), vehicle: saline with Tween-80); 98 % of control under setting [1]; 97 % of control (dose: 150.0 mg/kg/injection, schedule: Q01DX009 (ip), vehicle: saline with Tween-80); 95 % of control under setting [2]; 97 % of control (dose: 300.0 mg/kg/injection, schedule: Q01DX009 (ip), vehicle: saline with Tween-80); 106 % of control under setting [3].

`O=c1nc2n(CCO)c3ccccc3cc-2c(=O)[nH]1`: the T/C (dose: 100.0 mg/kg/injection, schedule: Q01DX001 (ip), vehicle: saline) was 95 % of control; the T/C (dose: 200.0 mg/kg/injection, schedule: Q01DX001 (ip), vehicle: saline) is 95 % of control; the T/C (dose: 400.0 mg/kg/injection, schedule: Q01DX001 (ip), vehicle: saline) was 89 % of control.

Take `O=C(COc1ccccc1)N/N=C/c1ccccc1O`: under setting [4], the T/C is 92 % of control.

With `CCCCOC(=O)c1cc([N+](=O)[O-])cc([N+](=O)[O-])c1Sc1ncnc2nc[nH]c12`, the T/C (dose: 0.63 mg/kg/injection, schedule: Q01DX005 (ip), vehicle: other) was 108 % of control; the T/C (dose: 1.25 mg/kg/injection, schedule: Q01DX005 (ip), vehicle: other) was 95 % of control; the T/C (dose: 2.5 mg/kg/injection, schedule: Q01DX005 (ip), vehicle: other) was 110 % of control; the T/C (dose: 5.0 mg/kg/injection, schedule: Q01DX005 (ip), vehicle: other) is 113 % of control; the T/C (dose: 9.4 mg/kg/injection, schedule: Q01DX005 (ip), vehicle: other) was 98 % of control; the T/C (dose: 10.0 mg/kg/injection, schedule: Q01DX005 (ip), vehicle: other) was 115 % of control. Moreover, the T/C is 103 % of control (dose: 18.8 mg/kg/injection, schedule: Q01DX005 (ip), vehicle: other); 109 % of control (dose: 37.5 mg/kg/injection, schedule: Q01DX005 (ip), vehicle: other); 113 % of control (dose: 75.0 mg/kg/injection, schedule: Q01DX005 (ip), vehicle: other).

As for `CC(C)(C)N=C1OC(=O)c2ccccc21`, the T/C is 101 % of control under setting [1], 101 % of control under setting [2] and 101 % of control under setting [3].

For the molecule `O=C1c2[nH]c3ccccc3c2CC1N1C(=O)c2ccccc2C1=O` (configuration not stated), the T/C was 87 % of control under setting [1], 93 % of control under setting [2] and 91 % of control under setting [3].

The record behind these values is PubChem BioAssay AID256 (DTP/NCI, 2004).
